Source: patent US11795162B2, “Modulators of the estrogen-related receptor” (Saint Louis University, priority 2017, dated 2023)

Target: T1, ERRγ (Homo sapiens, UniProt P62508)
T1 construct: Data for selected compounds in the full-length; expressed in transfected cells; host or cells: HEK293
T1 sequence (P62508 1-458): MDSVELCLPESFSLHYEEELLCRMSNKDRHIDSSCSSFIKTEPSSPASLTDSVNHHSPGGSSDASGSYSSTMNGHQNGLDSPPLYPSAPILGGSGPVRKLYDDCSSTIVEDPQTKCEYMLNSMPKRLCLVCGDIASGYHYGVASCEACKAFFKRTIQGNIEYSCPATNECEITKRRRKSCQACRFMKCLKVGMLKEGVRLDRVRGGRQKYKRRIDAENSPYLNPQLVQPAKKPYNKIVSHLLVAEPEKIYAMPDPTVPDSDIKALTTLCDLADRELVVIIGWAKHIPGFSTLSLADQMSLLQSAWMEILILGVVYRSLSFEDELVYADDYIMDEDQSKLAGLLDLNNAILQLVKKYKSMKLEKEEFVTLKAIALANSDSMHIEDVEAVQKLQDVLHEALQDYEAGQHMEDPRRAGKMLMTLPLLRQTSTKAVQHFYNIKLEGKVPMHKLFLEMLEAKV
Assay: Full-length ERRγ luciferase reporter assay (ERRE reporter, HEK293 cells)
Assay type: cell-based
Details: HEK293 cells transfected with ERRE reporter and pcDNA3.1 ERRγ, 24 hours treatment
Description: Luciferase Assay. HEK293 cells were maintained in Dulbecco's modified Eagles medium (DMEM) supplemented with 10% fetal bovine serum at 37° C. under 5% CO2. […] Cells were transfected with ERRE reporter construct and pcDNA3.1 ERRγ. 24 hour post-transfection, the cells were treated with vehicle or compound for 24 hours.

For O=C(Nc1cccc(F)c1)c1ccc(-c2ccc(B(O)O)cc2)s1 [Compound 8, (4-(5-((3-fluorophenyl)carbamoyl)thiophen-2-yl)phenyl)boronic acid], which EC50 is on record?
The EC50 was 89 nM.

O=C(Nc1cccc(B(O)O)c1)c1ccc(-c2cccc(F)c2)s1 [Compound 50] was tested. Which EC50 did it give?
The EC50 was 563 nM.

Which EC50 does the source give for O=C(Nc1cccc(O)c1)c1ccc(-c2ccsc2)s1 [Compound 74] here?
Its EC50 is 1010 nM.

Which EC50 does the source give for O=C(Nc1ccc(O)cc1)c1ccc(-c2ccc(C(F)(F)F)cc2)s1 [Compound 114] here?
Its EC50 is 2680 nM.

For O=C(Nc1ccc2ccccc2c1)c1cc(-c2ccc(O)cc2)[nH]n1 [Compound 122], which EC50 is on record?
The EC50 was 734 nM.

With O=C(Nc1ccc(Cl)cc1)c1cc(-c2cccc(O)c2)[nH]n1 [Compound 125] as the compound, how does the EC50 read?
The EC50 was > 25000 nM.

With O=C(NC1CCC(O)CC1)c1ccc(-c2ccccc2)o1 (centres unmarked) [Compound 135] as the compound, how does the EC50 read?
Its EC50 is 3500 nM.

With O=C(Nc1cccc(F)c1)c1ccc(-c2ccc(O)cc2)o1 [Compound 157] as the compound, how does the EC50 read?
The EC50 was 3400 nM.

Target: T2, ERR gamma protein (Homo sapiens, UniProt P62508)
T2 sequence (P62508 1-458): T1 sequence (P62508 1-458)
Assay: Protein thermal shift assay
Assay type: binding
Details: compound at 20 μM; ERR gamma protein 0.1 mg/mL, SYPRO-Orange; read-out: T.S. (thermal shift) range
Description: Six replicate reactions were set up and run in Applied Biosystems Quantstudio 7 Real-Time PCR system. Data were collected at a ramp rate of 0.05° C./s from 24° C. through 95° C. and analyzed using Protein Thermal Shift Software 1.3.

O=C(Nc1cccc(B(O)O)c1)c1ccc(-c2cccc(F)c2)s1 [Compound 50] was tested. Which ΔTm at 20 µM did it give?
The ΔTm at 20 µM was 2 to 4 °C.

Which ΔTm at 20 µM does the source give for O=C(Nc1ccc(O)cc1)c1ccc(-c2ccc(C(F)(F)F)cc2)s1 [Compound 114] here?
Its ΔTm at 20 µM is 2 to 4 °C.

How did the ΔTm at 20 µM turn out when O=C(Nc1ccc2ccccc2c1)c1cc(-c2ccc(O)cc2)[nH]n1 [Compound 122] was run?
Its ΔTm at 20 µM is 2 to 4 °C.

For O=C(Nc1ccc2ccccc2c1)c1cc(-c2cccc(O)c2)[nH]n1 [Compound 123], which ΔTm at 20 µM is on record?
Its ΔTm at 20 µM is 2 to 4 °C.

O=C(Nc1ccc(Cl)cc1)c1cc(-c2ccc(O)cc2)[nH]n1 [Compound 124] was tested. Which ΔTm at 20 µM did it give?
Its ΔTm at 20 µM is 2 to 4 °C.

O=C(Nc1ccc(Cl)cc1)c1cc(-c2cccc(O)c2)[nH]n1 [Compound 125] was tested. Which ΔTm at 20 µM did it give?
Its ΔTm at 20 µM is 2 to 4 °C.

Cc1ccc(NC(=O)c2cc(-c3cccc(O)c3)[nH]n2)cc1 [Compound 126] was tested. Which ΔTm at 20 µM did it give?
The ΔTm at 20 µM was 0 to 2 °C.

Which ΔTm at 20 µM does the source give for Cc1ccc(NC(=O)c2cc(-c3ccc(O)cc3)[nH]n2)cc1 [Compound 127] here?
The ΔTm at 20 µM was 2 to 4 °C.

How did the ΔTm at 20 µM turn out when CC(C)(C)c1ccc(NC(=O)c2cc(-c3cccc(O)c3)[nH]n2)cc1 [Compound 128] was run?
The ΔTm at 20 µM was 0 to 2 °C.

How did the ΔTm at 20 µM turn out when CC(C)(C)c1ccc(NC(=O)c2cc(-c3ccc(O)cc3)[nH]n2)cc1 [Compound 129] was run?
The ΔTm at 20 µM was 0 to 2 °C.

For CC(C)c1ccc(NC(=O)c2cc(-c3cccc(O)c3)[nH]n2)cc1 [Compound 130], which ΔTm at 20 µM is on record?
Its ΔTm at 20 µM is 0 to 2 °C.

O=C(Nc1ccc(O)cc1)c1cc(-c2ccc(O)cc2)[nH]n1 [Compound 131] was tested. Which ΔTm at 20 µM did it give?
The ΔTm at 20 µM was 2 to 4 °C.

Which ΔTm at 20 µM does the source give for Nc1cccc(NC(=O)c2ccc(-c3ccc(Cl)cc3)s2)c1 [Compound 132] here?
The ΔTm at 20 µM was > 4 °C.

For O=C(Nc1ccc(O)cc1)c1cc(-c2cccc(O)c2)[nH]n1 [Compound 134], which ΔTm at 20 µM is on record?
Its ΔTm at 20 µM is 0 to 2 °C.

How did the ΔTm at 20 µM turn out when O=C(NCc1ccc(Cl)cc1)c1ccc(-c2cccc(O)c2)o1 [Compound 136] was run?
The ΔTm at 20 µM was 0 to 2 °C.

For CC(C)c1ccc(-c2ccc(C(=O)Nc3ccccn3)s2)cc1 [Compound 137], which ΔTm at 20 µM is on record?
The ΔTm at 20 µM was 0 to 2 °C.

For CC(C)c1ccc(-c2ccc(C(=O)Nc3cccnc3)s2)cc1 [Compound 138], which ΔTm at 20 µM is on record?
The ΔTm at 20 µM was 0 to 2 °C.

Which ΔTm at 20 µM does the source give for CC(C)c1ccc(-c2ccc(C(=O)Nc3ccncc3)s2)cc1 [Compound 139] here?
The ΔTm at 20 µM was 2 to 4 °C.

Which ΔTm at 20 µM does the source give for CC(C)c1ccc(-c2ccc(C(=O)Nc3cccc(O)c3)s2)cc1 [Compound 140] here?
The ΔTm at 20 µM was 0 to 2 °C.

With O=C(Nc1cccc(O)c1)c1cnc(-c2ccsc2)o1 [Compound 141] as the compound, how does the ΔTm at 20 µM read?
The ΔTm at 20 µM was 0 to 2 °C.

How did the ΔTm at 20 µM turn out when Nc1cccc(-c2ccc(C(=O)NCc3ccccc3)s2)c1 [Compound 142] was run?
Its ΔTm at 20 µM is 0 to 2 °C.

How did the ΔTm at 20 µM turn out when O=C(Nc1ccc(F)cc1)c1ncc(-c2ccc(O)cc2)s1 [Compound 144] was run?
The ΔTm at 20 µM was 2 to 4 °C.

With O=C(Nc1ccc(O)cc1)c1ncc(-c2ccsc2)s1 [Compound 146] as the compound, how does the ΔTm at 20 µM read?
Its ΔTm at 20 µM is 2 to 4 °C.

With O=C(Nc1cccc(O)c1)c1ncc(-c2ccsc2)s1 [Compound 147] as the compound, how does the ΔTm at 20 µM read?
The ΔTm at 20 µM was 0 to 2 °C.

With Cc1ccccc1NC(=O)c1ccc(-c2cccc(O)c2)s1 [Compound 149] as the compound, how does the ΔTm at 20 µM read?
The ΔTm at 20 µM was 0 to 2 °C.

Which ΔTm at 20 µM does the source give for O=C(Nc1ccc(F)cc1)c1nc(-c2cccc(O)c2)cs1 [Compound 150] here?
Its ΔTm at 20 µM is 0 to 2 °C.

CC(C)c1cccc(NC(=O)c2ccc(-c3cccc(O)c3)s2)c1 [Compound 151] was tested. Which ΔTm at 20 µM did it give?
The ΔTm at 20 µM was 0 to 2 °C.

How did the ΔTm at 20 µM turn out when O=C(Nc1cccc(O)c1)c1nc(-c2ccsc2)cs1 [Compound 152] was run?
Its ΔTm at 20 µM is 0 to 2 °C.

How did the ΔTm at 20 µM turn out when O=C(Nc1ccc(O)cc1)c1nc(-c2ccsc2)cs1 [Compound 153] was run?
Its ΔTm at 20 µM is 0 to 2 °C.

How did the ΔTm at 20 µM turn out when O=C(Nc1ccccc1F)c1ccc(-c2cccc(C(=O)C(F)(F)F)c2)s1 [Compound 154] was run?
The ΔTm at 20 µM was 0 to 2 °C.
